Measurements as given in patent US8835629B2, “Anti-cancer agents” (The Walter and Eliza Hall Institute of Medical Research, priority 2010, dated 2014).

Assays:
[1] = tested on: LIM2537 human colon carcinoma cell line; assay: MTS assay using LIM2537 human colon carcinoma cell line; assay type: cell-based; conditions: 96 h, LIM2537, 4 days incubation, read-out: IC50 Range
Experimental: • Cells plated at […] in 100 μl medium+5% FCS (+Adds^1): • Cells incubated overnight: • Titrate inhibitors in a fresh plate in 150 μl medium • Transfer 100 μl titrated compounds to matching wells of the cell plate. • Incubate a further 4 days: • Add 10 μl MTS^2 or MTT^3 for 1.5 to 2 hours and read on Multiscanner (wavelengths 492/690) ^1 Additives for culture of LIM cell lines: 10 μM thioglycerol, 0.025 U/ml insulin, 1 μg/ml hydrocortisone. ^2 3-(4,5-dimethylthiazol-2-yl)-5-(3-carboxymethoxyphenyl)-2-(4-sulfophenyl)-2H-tetrazolium. ^3 3-(4,5-Dimethylthiazol-2-yl)-2,5-diphenyltetrazolium bromide
• LIM2537 human colon carcinoma cell line, grown in RPMI+Adds^1+5% FCS
Cells are trypsinized and washed ×2 in medium+5% FCS and plate out at 10^4 cells per well in 100 μl.
Incubate plates o/n 37° C.+5%-10% CO2 incubator.
Inhibitors are dissolved in DMSO to make 10 mM stocks and titrated in a 96 well plate in duplicate to use as the stock for the test plate. Titration range from 40 μM down to […] in ½ dilutions and 100 μl of each dilution transferred to the appropriate wells of the test plate that contains the cells (also in 100 μl) which results in the final concentration of the inhibitors being 20 μM down to 0.01 μM across the rows in duplicate. Three inhibitors are tested per plate (Rows A-F).
Each plate has the following: • Rows A,B: Inhibitor 1 dilutions, 200 μl per well • Rows C,D: Inhibitor 2 dilutions, 200 μl per well • Rows E,F: Inhibitor 3 dilutions, 200 μl per well • Control row G1-6: Medium+5% FCS (for maximum growth) • Control row G7-12: Taxol (250 nM for maximal inhibition) • Control row H: Remove medium from cells and replace with 200 μl Serum Free medium for serum free growth rate.
Incubate plates for 4 days in incubator. Process with MTS or MTT as outlined below.
To each well add 10 μl MTS (Sigma) solution. Incubate MTS for 1.5 to 2 hours and MTT for 4 hours. Stop reaction by adding 10 μl 10% SDS to each well. Read on Multiscan (492/690) plate reader, plot colour change versus concentration of inhibitor to establish the IC50.

MDA-MB-231 = assay: Antimitotic effects (G2/M cell cycle block, DNA staining, ModFit) on MDA-MB-231; assay type: cell-based, human; conditions: for % of Taxol (proportion of cells in G2M test/proportion of cells in G2M Taxol): 24 hrs, standard 1 μM Taxol; for IC50: Homo sapiens, inhibitors added to cells in log-growth for 24 hrs, read-out: IC50 for progression through the cell cycle
From the text: (§1) For the initial studies two colon carcinoma cell lines (LIM1215 and SW480) and two breast cancer cell lines (MDA-MB-231 and MCF-7) were used. Taxol was used as comparator in these experiments (Table 1).

SW480 = assay: Antimitotic effects (G2/M cell cycle block, DNA staining, ModFit) on SW480; assay type: cell-based, human; conditions: for % of Taxol (proportion of cells in G2M test/proportion of cells in G2M Taxol): 24 hrs, standard 1 μM Taxol; for IC50: Homo sapiens, inhibitors added to cells in log-growth for 24 hrs, read-out: IC50 for progression through the cell cycle
From the text: as §1

MCF-7 = assay: Antimitotic effects (G2/M cell cycle block, DNA staining, ModFit) on MCF-7; assay type: cell-based, human; conditions: for % of Taxol (proportion of cells in G2M test/proportion of cells in G2M Taxol): 24 hrs, standard 1 μM Taxol; for IC50: Homo sapiens, MCF7, inhibitors added to cells in log-growth for 24 hrs, read-out: IC50 for progression through the cell cycle
From the text: as §1

LIM1215 = assay: Antimitotic effects (G2/M cell cycle block, DNA staining, ModFit) on LIM1215; assay type: cell-based, human; conditions: for % of Taxol (proportion of cells in G2M test/proportion of cells in G2M Taxol): 24 hrs, standard 1 μM Taxol; for IC50: Homo sapiens, inhibitors added to cells in log-growth for 24 hrs, read-out: IC50 for progression through the cell cycle
From the text: as §1

tubulin = assay: Tubulin polymerization in intact cells (soluble vs polymerized tubulin, immunoblot); assay type: cell-based; conditions: LIM 1215 cells, NP-40 lysis, immunoblot with β-tubulin antibodies
Experimental: Equal volumes of supernatant and resuspended insoluble material were analyzed by SDS/PAGE and immunoblotting with antibodies to β-tubulin. S=soluble and P=polymerized tubulin. […] To monitor the effects of triazines on tubulin, the present inventors tested tubulin polymerization in intact cells following exposure to the drug. Cells treated with Taxol or with compound 3 were lysed in hypotonic buffer containing 0.5% NP-40 and the cellular extracts were centrifuged at high speed. Polymerized tubulin is detergent-insoluble: thus after this treatment soluble tubulin is recovered in the supernatants (S), and polymerized tubulin in the cellular pellets (P). The relative proportion of the two forms was monitored by SDS/PAGE and immunoblotting with tubulin-specific antibodies.

[2] = Dose escalation in mice (tolerability and toxicity); assay type: in vivo; conditions: C57Bl/6 mice, subcutaneous in DMSO, sacrificed 24 hrs post-injection
Experimental: Compound 1 was initially tested for tolerability and toxicity in mice. C57Bl/6 mice (aged 8-12 weeks) were injected subcutaneously with escalating doses of Compound 1 in a constant volume of DMSO. Mice were sacrificed 24 hrs post-injection. There were no adverse effects of doses up to 80 mg/kg within this time-frame. Thus the compound is well tolerated at doses that far exceed the IC50 observed “in vitro”.
These minor skin lesions healed readily within 2-3 days.

In the case of `COc1ccc(CNc2nc(NCc3cccc(N4CCCCC4)c3)nc(NN3CC(=O)NC3=O)n2)cc1` [Compound 20, 1-((4-((4-methoxybenzyl)amino)-6-((3-(piperidin-1-yl)benzyl)amino)-1,3,5-triazin-2-yl)amino)imidazolidine-2,4-dione], the IC50 [1] is reported as 100 to 1000 nM.
For `COc1ccc(CNc2nc(NCc3ccc(N4CCOCC4)cc3)nc(NN3CC(=O)NC3=O)n2)cc1` [Compound 18, 1-((4-((4-methoxybenzyl)amino)-6-((4-morpholinobenzyl)amino)-1,3,5-triazin-2-yl)amino)imidazolidine-2,4-dione], the IC50 [1] was 100 to 1000 nM.
With `COc1ccc(CNc2nc(NCc3ccc(CN4CCOCC4)cc3)nc(NN3CC(=O)NC3=O)n2)cc1` [Compound 14, 1-((4-((4-methoxybenzyl)amino)-6-((4-(morpholinomethyl)benzyl)amino)-1,3,5-triazin-2-yl)amino)imidazolidine-2,4-dione] the IC50 [1] was > 10000 nM.
In the case of `CC(=O)O[C@H]1C(=O)[C@@]2(C)[C@H]([C@H](OC(=O)c3ccccc3)[C@]3(O)C[C@H](OC(=O)[C@H](O)[C@@H](NC(=O)c4ccccc4)c4ccccc4)C(C)=C1C3(C)C)[C@]1(OC(C)=O)CO[C@@H]1C[C@@H]2O` [Taxol, reference compound], the “% of Taxol (proportion of cells in G2M test/proportion of cells in G2M Taxol)” value (MDA-MB-231) is reported as 100%, the IC50 (MDA-MB-231) is reported as 8 nM and the “% of Taxol (proportion of cells in G2M test/proportion of cells in G2M Taxol)” value (SW480) is reported as 100%. The IC50 (SW480) was 8 nM, the “% of Taxol (proportion of cells in G2M test/proportion of cells in G2M Taxol)” value (MCF-7) was 100% and the IC50 (MCF-7) was 8 nM. For the same molecule, the “% of Taxol (proportion of cells in G2M test/proportion of cells in G2M Taxol)” value (LIM1215) was 100%, the IC50 (LIM1215) was 10 nM and the “Stabilization of tubulin in treated cells (soluble vs polymerized)” value (tubulin) was “strongly stabilized tubulin in a dose-dependent manner”.
For `COc1ccc(CNc2nc(NCc3cccc(N4CCN(C)CC4)c3)nc(NN3CC(=O)NC3=O)n2)cc1` [Compound 22, 1-((4-((4-methoxybenzyl)amino)-6-((3-(4-methylpiperazin-1-yl)benzyl)amino)-1,3,5-triazin-2-yl)amino)imidazolidine-2,4-dione], the IC50 [1] was > 10000 nM.
`COc1ccc(CNc2nc(NCc3ccc(CN4CCCCC4)cc3)nc(NN3CC(=O)NC3=O)n2)cc1` [Compound 13, 1-((4-((4-methoxybenzyl)amino)-6-((4-(piperidin-1-ylmethyl)benzyl)amino)-1,3,5-triazin-2-yl)amino)imidazolidine-2,4-dione] showed an IC50 [1] of 100 to 1000 nM.
In the case of `COc1ccc(CNc2nc(NCc3ccc(CN4CCN(C)CC4)cc3)nc(NN3CC(=O)NC3=O)n2)cc1` [Compound 16, 1-((4-((4-methoxybenzyl)amino)-6-((4-((4-methylpiperazin-1-yl)methyl)benzyl)amino)-1,3,5-triazin-2-yl)amino)imidazolidine-2,4-dione], the IC50 [1] is reported as ≤ 100 nM.
With `CCN(CC)Cc1ccc(CNc2nc(NCc3ccc(OC)cc3)nc(NN3CC(=O)NC3=O)n2)cc1` [Compound 15, 1-((4-((4-((diethylamino)methyl)benzyl)amino)-6-((4-methoxybenzyl)amino)-1,3,5-triazin-2-yl)amino)imidazolidine-2,4-dione] the IC50 [1] was 1000 to 10000 nM.
With `CCN(CC)CCOc1ccc(CNc2nc(NCc3ccc(OC)cc3)nc(NN3CC(=O)NC3=O)n2)cc1` [Compound 23, 1-((4-((4-(2-(diethylamino)ethoxy)benzyl)amino)-6-((4-methoxybenzyl)amino)-1,3,5-triazin-2-yl)amino)imidazolidine-2,4-dione] the IC50 [1] was 1000 to 10000 nM.
In the case of `COc1ccc(CNc2nc(NCc3ccc(OC)cc3)nc(NN3CC(=O)NC3=O)n2)cc1` [Compound 1, 1-[4,6-Bis-(4-methoxybenzylamino)-{1,3,5}-triazin-2-yl-amino]-imidazolidine-2,4-dione], the “% of Taxol (proportion of cells in G2M test/proportion of cells in G2M Taxol)” value (MDA-MB-231) is reported as 94%, the IC50 (MDA-MB-231) is reported as 13 nM and the “% of Taxol (proportion of cells in G2M test/proportion of cells in G2M Taxol)” value (SW480) is reported as 120%. For the same molecule, the IC50 (SW480) was 50 nM, the “% of Taxol (proportion of cells in G2M test/proportion of cells in G2M Taxol)” value (MCF-7) was 108% and the IC50 (MCF-7) was 9 nM. For the same molecule, the “Doses with no adverse effects” value [2] was “up to 80 mg/kg”, the “% of Taxol (proportion of cells in G2M test/proportion of cells in G2M Taxol)” value (LIM1215) was 105% and the IC50 (LIM1215) was 70 nM.
For `COc1ccc(CNc2nc(NCc3ccc(N4CCCCC4)cc3)nc(NN3CC(=O)NC3=O)n2)cc1` [Compound 17, 1-((4-((4-methoxybenzyl)amino)-6-((4-(piperidin-1-yl)benzyl)amino)-1,3,5-triazin-2-yl)amino)imidazolidine-2,4-dione], the IC50 [1] was ≤ 100 nM.
In the case of `COc1ccc(CNc2nc(NCc3cccc(N4CCOCC4)c3)nc(NN3CC(=O)NC3=O)n2)cc1` [Compound 21, 1-((4-((4-methoxybenzyl)amino)-6-((3-morpholinobenzyl)amino)-1,3,5-triazin-2-yl)amino)imidazolidine-2,4-dione], the IC50 [1] is reported as 1000 to 10000 nM.
For `COc1ccc(CNc2nc(NCc3ccc(OC)cc3)nc(NC3NC(=O)N(C)C3=O)n2)cc1` (centres unmarked) [Compound 3, 5-[4,6-Bis-(4-methoxy-benzylamino)-[1,3,5]-triazin-2-ylamino]-3-methyl-imidazolidine-2,4-dione], the “% of Taxol (proportion of cells in G2M test/proportion of cells in G2M Taxol)” value (MDA-MB-231) was 93%, the IC50 (MDA-MB-231) was 3000 nM and the “% of Taxol (proportion of cells in G2M test/proportion of cells in G2M Taxol)” value (SW480) was 106%. The IC50 (SW480) was 1450 nM, the “% of Taxol (proportion of cells in G2M test/proportion of cells in G2M Taxol)” value (MCF-7) was 102% and the IC50 (MCF-7) was 450 nM. The “% of Taxol (proportion of cells in G2M test/proportion of cells in G2M Taxol)” value (LIM1215) was 108% and the IC50 (LIM1215) was 3000 nM.
With `COc1ccc(CNc2nc(NCc3ccc(OCCN4CCOCC4)cc3)nc(NN3CC(=O)NC3=O)n2)cc1` [Compound 24, 1-((4-((4-methoxybenzyl)amino)-6-((4-(2-morpholinoethoxy)benzyl)amino)-1,3,5-triazin-2-yl)amino)imidazolidine-2,4-dione] the IC50 [1] was 100 to 1000 nM.
`COc1ccc(CNc2nc(NCc3ccc(N4CCN(C)CC4)cc3)nc(NN3CC(=O)NC3=O)n2)cc1` [Compound 19, 1-((4-((4-methoxybenzyl)amino)-6-((4-(4-methylpiperazin-1-yl)benzyl)amino)-1,3,5-triazin-2-yl)amino)imidazolidine-2,4-dione] showed an IC50 [1] of 100 to 1000 nM.
